According to patent publication US10292989B2, “General anesthetics that are not neurotoxic” (University of Virginia Patent Foundation, priority 2014, dated 2019):

What was measured:
[1] = system: young adolescent rats (P20-29); experiment: Loss of righting reflex (LORR) in young adolescent rats, i.p.; type: in vivo; settings: Rattus norvegicus, ip; rats of both sexes P20-29, i.p., 15% β-cyclodextrin; read-out: estimated ED50 for loss of righting reflex (LORR)
Description: (§2) For in vivo experiments, steroids were freshly dissolved in 15% β-cyclodextrin solution and injected intraperitoneally (i.p.) at escalating doses from 5 to 75 mg/kg.

[2] = system: rats with hind paw incision; experiment: Thermal hyperalgesia after plantar skin and deep tissue incision (PWL); type: in vivo, rat
Description: In order to study the potential role of neuroactive steroids in perioperative analgesia we used a model of a plantar incision of skin and deep tissue in the hind paw of rats. Starting 2 hours after operation, thermal hyperalgesia to nociceptive heat stimuli was assessed measuring thermal PWLs. As depicted in FIG. 5, thermal hyperalgesia is profound up to two days after surgery as evidenced by attenuated PWLs in incised (right) paws by about 70% when compared to unincised (left) paws in the same animals. This gradually resolved and returned to near preoperative baseline values within 7 days. Note that thermal PWLs in unincised paws remained stable during this period.
Next, we examined the ability of 3β-OH to influence thermal hyperalgesia in this rat model of perioperative pain. […] We applied the same dose of steroid or vehicle i.t. at 2, 24 and 48 hours after surgery and measured thermal PWLs in both paws (unincised paws, top panel of FIG. 6; incised paws, bottom panel of FIG. 6) at 30 minute intervals from 30-180 minutes after surgery in order to assess the time course and possible tolerance to any analgesic and antihyperalgesic effect of 3β-OH. FIG. 6 summarizes average results from multiple animals (6-13 per group). It is noteworthy that 3β-OH had little effect on thermal PWLs when compared to vehicle in incised paws when applied 2 hours after incision (bottom panel, filled round symbols) while in contralateral unincised paws (top panel, filled round symbols) the same dose induced analgesia at the 30 and 60 minute time points as evidenced by increased PWLs when compared to vehicle injections (top panel, filled circles). Furthermore, subsequent i.t. injections of 3β-OH at 24 hours (open squares) and 48 hours (filled triangles) induced long-lasting progressive anti-hyperalgesia in incised paws (bottom panel) with return of thermal PWLs to near baseline pre-incisional values measured at 180 minutes after injection (48 hours group). For example, at 48 hours post-surgery the average PWL of incised paws at 180 minutes post vehicle injection was about 4 seconds, while at 180 minutes post steroid injection PWLs were prolonged to about 9 seconds and approached pre-incisional values. In contrast, in unincised paws the same injections of 3β-OH induced analgesia of similar magnitude to the analgesia produced when steroid was injected 2 hours post-surgery, measuring in average 14-15 seconds on thermal PWLs (top panel).
We next tested the idea that locally applied 3β-OH may abolish thermal hyperalgesia after paw incision. For these experiments we first obtained baseline (pre-incision) thermal PWLs (about 10 seconds) and repeated measurements 2 hours after surgery (about 2.5 seconds). We then injected (arrow on FIG. 7A) directly into the incised paw either 16 μg or 48 μg of 3β-OH in 100 μl of saline that was pH adjusted to 7.4 (n=6 rats in each group). We recorded PWLs for three consecutive days after injections.
Note that PWLs in noninjected (unincised) paws (black squares and red diamonds) remained stable indicating lack of any systemic effect. […] For these experiments depicted on FIG. 7B, we first obtained pre-incision PWLs, and then injected 16 μg of 3β-OH repeatedly at the following time points: 2 hours, day 1, 2, 3 and 5 after post-surgery (n=6 rats). As shown on FIG. 7B (red symbols) repeated injections of steroid induced progressive anti-hyperalgesia from day 1 to day 5 post surgery with increase in PWLs from 50-90% when compared to PWLs in incised paws injected with vehicle (*, p<0.05; **, p<0.01; ***, p<0.001).

[3] = molecular target: T1, T-channels in rat DRG neurons (Rattus norvegicus, UniProt Q9EQ60); settings: cited from earlier work
T1 construct: endogenous in cells; host or cells: acutely dissociated rat DRG neurons
T1 sequence (Q9EQ60 whole entry): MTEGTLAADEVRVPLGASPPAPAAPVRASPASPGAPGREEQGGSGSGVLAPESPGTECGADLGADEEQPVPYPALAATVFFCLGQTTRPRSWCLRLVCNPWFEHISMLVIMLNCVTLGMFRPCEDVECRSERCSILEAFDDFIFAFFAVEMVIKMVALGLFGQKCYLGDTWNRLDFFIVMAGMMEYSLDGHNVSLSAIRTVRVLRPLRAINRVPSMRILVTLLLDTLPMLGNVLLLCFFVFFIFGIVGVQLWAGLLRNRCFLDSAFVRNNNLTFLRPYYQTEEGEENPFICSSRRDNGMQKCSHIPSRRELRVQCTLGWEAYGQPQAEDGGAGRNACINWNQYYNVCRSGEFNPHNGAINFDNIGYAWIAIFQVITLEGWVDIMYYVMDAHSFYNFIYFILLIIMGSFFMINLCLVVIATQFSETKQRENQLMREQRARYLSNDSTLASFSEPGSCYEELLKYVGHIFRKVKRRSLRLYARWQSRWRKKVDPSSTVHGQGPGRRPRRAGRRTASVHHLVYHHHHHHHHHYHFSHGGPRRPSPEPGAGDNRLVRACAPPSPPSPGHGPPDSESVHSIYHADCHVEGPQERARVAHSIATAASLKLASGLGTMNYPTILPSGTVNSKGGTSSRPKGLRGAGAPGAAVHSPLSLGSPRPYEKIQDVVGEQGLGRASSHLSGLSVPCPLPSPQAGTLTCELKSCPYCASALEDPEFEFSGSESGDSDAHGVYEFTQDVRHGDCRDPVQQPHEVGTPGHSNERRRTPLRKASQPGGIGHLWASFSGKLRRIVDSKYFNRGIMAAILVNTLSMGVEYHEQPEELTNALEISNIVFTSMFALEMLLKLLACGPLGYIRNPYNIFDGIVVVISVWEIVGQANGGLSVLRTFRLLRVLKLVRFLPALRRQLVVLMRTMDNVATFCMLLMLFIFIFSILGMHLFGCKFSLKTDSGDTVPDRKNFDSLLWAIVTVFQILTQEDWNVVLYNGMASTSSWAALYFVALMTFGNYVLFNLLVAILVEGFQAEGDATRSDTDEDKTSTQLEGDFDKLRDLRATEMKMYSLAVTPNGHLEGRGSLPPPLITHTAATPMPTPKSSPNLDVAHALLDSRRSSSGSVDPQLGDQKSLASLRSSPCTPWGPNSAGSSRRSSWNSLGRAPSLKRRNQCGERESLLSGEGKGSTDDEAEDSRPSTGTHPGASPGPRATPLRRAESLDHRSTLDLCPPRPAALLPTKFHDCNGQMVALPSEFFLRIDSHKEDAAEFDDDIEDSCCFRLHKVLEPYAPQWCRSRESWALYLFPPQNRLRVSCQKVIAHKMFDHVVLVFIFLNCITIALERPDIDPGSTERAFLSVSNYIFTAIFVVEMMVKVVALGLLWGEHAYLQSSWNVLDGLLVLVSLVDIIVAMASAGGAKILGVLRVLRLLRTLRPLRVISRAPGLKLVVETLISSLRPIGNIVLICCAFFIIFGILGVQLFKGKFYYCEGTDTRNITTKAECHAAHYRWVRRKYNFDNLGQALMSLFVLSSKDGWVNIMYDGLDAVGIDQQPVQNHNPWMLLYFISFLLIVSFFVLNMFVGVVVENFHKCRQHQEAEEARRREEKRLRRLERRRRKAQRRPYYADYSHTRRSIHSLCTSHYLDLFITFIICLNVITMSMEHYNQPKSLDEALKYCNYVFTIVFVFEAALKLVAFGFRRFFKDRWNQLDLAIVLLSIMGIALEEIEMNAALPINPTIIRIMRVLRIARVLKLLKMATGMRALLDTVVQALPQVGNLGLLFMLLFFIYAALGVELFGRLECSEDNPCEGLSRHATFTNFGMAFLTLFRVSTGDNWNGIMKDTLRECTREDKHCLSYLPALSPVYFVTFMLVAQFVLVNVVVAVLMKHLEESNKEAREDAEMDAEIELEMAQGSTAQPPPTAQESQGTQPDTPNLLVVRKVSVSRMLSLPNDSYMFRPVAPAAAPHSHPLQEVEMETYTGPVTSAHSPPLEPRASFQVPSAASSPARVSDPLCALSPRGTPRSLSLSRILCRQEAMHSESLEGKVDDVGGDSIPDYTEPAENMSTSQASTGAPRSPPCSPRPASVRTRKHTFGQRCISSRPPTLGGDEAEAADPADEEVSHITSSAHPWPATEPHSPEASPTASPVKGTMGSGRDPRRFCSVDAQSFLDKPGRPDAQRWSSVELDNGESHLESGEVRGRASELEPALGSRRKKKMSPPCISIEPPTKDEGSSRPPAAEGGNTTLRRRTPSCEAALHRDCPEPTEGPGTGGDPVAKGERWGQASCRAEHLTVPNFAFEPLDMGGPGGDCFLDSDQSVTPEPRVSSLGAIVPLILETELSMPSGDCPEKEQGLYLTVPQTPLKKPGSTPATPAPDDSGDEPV

[4] = system: adult female C57Bl/6 mice; experiment: Loss of righting reflex (LORR) in adult female C57Bl/6 mice, i.p.; type: in vivo, mouse
Description: as §2

rat pups (PND7) [5] = experiment: Lethality (LD50) in PND7 rat pups; settings: LD50 vs ED50 for LORR
[6] = Lethality (LD50) in PND7 rat pups; settings: rat, in vivo, ip
NMDA currents = settings: cited from earlier work
adult monkeys = experiment: Acute anesthetic doses in adult monkeys, cardiac arrhythmias; type: in vivo, monkey; settings: acute applications of anesthetic doses, preliminary study, data not shown
From the text: Although no preclinical data are currently available on the long-term use of 3β-OH, ECN, and related neuroactive steroids, previous evaluation of the safety of non-steroidal blockers of T-channels such as TTA compounds in dogs has disclosed no cardiovascular side effects.

[7] = system: T-currents in nucleus reticularis thalami (nRT); settings: cited from earlier work
[8] = molecular target: T2, recombinant human Cav2.3 channels (Homo sapiens, UniProt Q15878); experiment: Recombinant human Cav2.3 currents in HEK 293 cells; type: cell-based; settings: HEK293, read-out: inhibition of recombinant Cav2.3 currents (of control pre-drug values)
T2 construct: expressed in transfected cells
T2 sequence (Q15878 whole entry): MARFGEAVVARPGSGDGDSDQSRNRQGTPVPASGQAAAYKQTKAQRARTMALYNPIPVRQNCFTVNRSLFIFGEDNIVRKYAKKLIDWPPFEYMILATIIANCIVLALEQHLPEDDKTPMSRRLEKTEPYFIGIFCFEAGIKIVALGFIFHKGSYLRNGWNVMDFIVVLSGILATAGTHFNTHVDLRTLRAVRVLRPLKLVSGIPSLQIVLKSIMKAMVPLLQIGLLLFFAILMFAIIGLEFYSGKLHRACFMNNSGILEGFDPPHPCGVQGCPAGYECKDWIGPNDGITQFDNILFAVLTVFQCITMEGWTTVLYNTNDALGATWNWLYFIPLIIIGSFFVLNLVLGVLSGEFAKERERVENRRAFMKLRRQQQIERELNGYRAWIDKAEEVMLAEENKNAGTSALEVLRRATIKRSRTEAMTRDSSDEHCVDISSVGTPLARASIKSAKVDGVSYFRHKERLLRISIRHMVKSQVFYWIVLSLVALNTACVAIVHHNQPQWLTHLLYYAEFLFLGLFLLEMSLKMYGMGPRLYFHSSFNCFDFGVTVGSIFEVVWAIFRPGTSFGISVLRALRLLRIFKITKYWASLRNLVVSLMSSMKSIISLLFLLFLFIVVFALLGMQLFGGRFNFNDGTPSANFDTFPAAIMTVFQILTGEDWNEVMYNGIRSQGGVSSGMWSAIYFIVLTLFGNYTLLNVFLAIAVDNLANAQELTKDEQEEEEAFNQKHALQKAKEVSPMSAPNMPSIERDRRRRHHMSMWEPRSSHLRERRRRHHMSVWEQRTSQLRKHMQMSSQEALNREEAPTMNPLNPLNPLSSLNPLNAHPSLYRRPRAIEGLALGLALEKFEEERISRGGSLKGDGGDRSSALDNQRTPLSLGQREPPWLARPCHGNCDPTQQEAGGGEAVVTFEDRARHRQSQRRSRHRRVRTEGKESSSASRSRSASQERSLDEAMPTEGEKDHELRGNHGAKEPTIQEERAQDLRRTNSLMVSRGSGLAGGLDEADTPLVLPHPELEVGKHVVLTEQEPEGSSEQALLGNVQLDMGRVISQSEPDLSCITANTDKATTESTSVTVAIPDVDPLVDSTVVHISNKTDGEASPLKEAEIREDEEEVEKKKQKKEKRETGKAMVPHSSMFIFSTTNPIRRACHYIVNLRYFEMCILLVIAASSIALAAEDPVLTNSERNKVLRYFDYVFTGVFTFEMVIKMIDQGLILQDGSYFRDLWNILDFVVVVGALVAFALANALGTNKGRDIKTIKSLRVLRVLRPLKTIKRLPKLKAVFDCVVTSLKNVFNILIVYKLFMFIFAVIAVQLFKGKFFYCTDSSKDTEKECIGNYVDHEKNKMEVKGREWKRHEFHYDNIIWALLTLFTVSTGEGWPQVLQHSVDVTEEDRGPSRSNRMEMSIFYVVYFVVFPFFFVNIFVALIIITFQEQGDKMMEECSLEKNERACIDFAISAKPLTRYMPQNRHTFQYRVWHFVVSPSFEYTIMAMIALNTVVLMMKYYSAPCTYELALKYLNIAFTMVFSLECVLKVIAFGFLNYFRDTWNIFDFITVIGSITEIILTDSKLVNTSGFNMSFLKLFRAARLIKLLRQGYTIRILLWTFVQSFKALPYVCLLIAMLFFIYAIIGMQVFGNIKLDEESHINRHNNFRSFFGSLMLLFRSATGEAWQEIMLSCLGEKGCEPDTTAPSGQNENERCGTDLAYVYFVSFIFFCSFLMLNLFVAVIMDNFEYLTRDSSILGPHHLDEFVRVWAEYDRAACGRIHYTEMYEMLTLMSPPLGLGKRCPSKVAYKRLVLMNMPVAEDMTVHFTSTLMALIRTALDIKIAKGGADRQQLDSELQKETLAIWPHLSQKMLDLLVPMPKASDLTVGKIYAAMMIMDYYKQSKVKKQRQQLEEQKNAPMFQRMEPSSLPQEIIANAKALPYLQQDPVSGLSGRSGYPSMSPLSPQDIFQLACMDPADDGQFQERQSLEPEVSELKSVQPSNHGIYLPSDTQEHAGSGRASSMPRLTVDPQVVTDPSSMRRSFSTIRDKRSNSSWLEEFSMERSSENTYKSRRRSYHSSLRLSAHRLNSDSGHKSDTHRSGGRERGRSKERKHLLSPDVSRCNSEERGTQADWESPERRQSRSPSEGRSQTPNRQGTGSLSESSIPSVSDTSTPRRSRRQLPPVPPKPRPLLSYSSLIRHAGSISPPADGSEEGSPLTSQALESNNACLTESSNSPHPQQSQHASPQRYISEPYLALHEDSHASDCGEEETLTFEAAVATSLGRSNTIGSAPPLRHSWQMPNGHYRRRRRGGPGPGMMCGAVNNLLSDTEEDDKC
T2 sequence (P54284 whole entry partner): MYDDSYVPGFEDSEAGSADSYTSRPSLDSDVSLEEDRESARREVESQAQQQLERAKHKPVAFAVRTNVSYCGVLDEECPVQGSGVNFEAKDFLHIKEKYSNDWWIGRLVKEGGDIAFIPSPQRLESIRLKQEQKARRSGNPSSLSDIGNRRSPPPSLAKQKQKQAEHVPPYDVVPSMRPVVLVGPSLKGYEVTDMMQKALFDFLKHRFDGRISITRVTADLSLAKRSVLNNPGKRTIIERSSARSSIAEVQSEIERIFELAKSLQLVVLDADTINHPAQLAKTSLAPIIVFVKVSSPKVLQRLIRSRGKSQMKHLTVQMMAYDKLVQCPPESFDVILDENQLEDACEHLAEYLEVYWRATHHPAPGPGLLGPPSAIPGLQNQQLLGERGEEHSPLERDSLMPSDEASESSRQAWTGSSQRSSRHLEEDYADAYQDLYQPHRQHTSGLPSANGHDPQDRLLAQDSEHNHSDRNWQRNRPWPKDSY
From the text: Here, we examined the sensitivity of recombinant human Cav2.3 channels stably expressed in human embryonic kidney (HEK) 293 cells to 3β-OH.

rats [9] = experiment: 8-arm radial arm maze (RAM) after exposure at PND7; type: in vivo, rat
Description: (§1) To assess cognitive abilities of our rats we tested their spatial working memory using the 8-arm radial arm maze test (RAM). We began by comparing the overall appearance and daily weight of rats in each group (saline, cyclodextrin, 3β-OH at 10 mg/kg and ketamine at 40 mg/kg) since nutritional status and general state of health are critically important for cognitive development. Based on their general appearance, rats in different groups could not be distinguished from each other. Similarly, there was no difference in daily weight gain among the groups (FIG. 13A). The time points when the animals were treated (PND 7), food restricted (from PND 45), tested on the RAM (from PND 53) and permitted to eat ad libitum (from PND 70) are indicated on the graph. Food restriction, a necessary component of the RAM learning protocol, was limited so that no rat lost more than 10%-15% of its body weight.
To further scrutinize how the acquisition rate of 3β-OH-treated rats compares to ketamine and vehicle groups, we plotted the cumulative percent scores for ketamine-treated animals relative to recorded cumulative percent scores for other groups, using a percent-percent plot (p-p plot) (FIG. 14). […] The learning behavior of 3β-OH-treated rats is similar to that of sham controls resulting in a large gap (shaded area) in learning ability between ketamine-treated (lower blue dotted line) and 3β-OH-treated animals (upper red dotted line). A slight slowing in the acquisition rate observed with 3β-OH-treated rats when compared to vehicle controls (saline—SAL and cyclodextrin—CYCL) during the mid-portion of training (as discussed in FIG. 13C) is highlighted with rectangles.

rats [10] = experiment: Sensorimotor tests (inclined plane, platform, ledge); type: in vivo, rat; settings: 16 μg i.t., 60 min after injection
Description: b. 3β-OH induces potent dose-dependent spinally-mediated analgesia in naïve rats. To assess its potential for spinally mediated analgesia, we injected 4 escalating doses of 3β-OH i.t. (from 0.003 to 16 μg) dissolved in 50 μL of vehicle (15% β-cyclodextrin) and measured thermal PWLs at 30 minutes intervals up to 150 minutes after injections. […] The analgesic effect was long-lasting, with higher doses of 3β-OH increasing PWLs by about 25-30% at 150 minutes post-injections. Note that PWLs remained stable in both paws during injections of vehicle (red lines). We also considered the possibility that i.t. injected 3β-OH may non-specifically affect performance by decreasing motor strength and/or coordination. […] Rats (n=6), were tested using an inclined plane, platform, and ledge before injection of the highest dose of 3β-OH (16 μg i.t.) and at 60 min after injection, corresponding to the time of maximal analgesia (FIG. 4).

adult naïve rats = experiment: Thermal paw withdrawal latency after i.t. injection in naive rats; type: in vivo, rat
Description: a. […] We began by studying the role of postsynaptic T-channels in DH neurons using current-clamp recording from unidentified lamina I-II DH neurons in spinal cord slices in vitro. To exclude synaptic currents, our external solution contained 20 μM picrotoxin, 50 μM d-APV and 5 μM NBQX to block inhibitory and excitatory synaptic currents, respectively. We first injected −300 pA of current via the recording electrode for 500 ms, which hyperpolarized the resting membrane potential (RMP) and allowed T-channels to recover from inactivation. This protocol served to assess input resistance (Rin) and to evoke rebound action potential (AP) firing. The top line in FIG. 3A depicts the protocol of current injection while bottom traces represent membrane responses. […] To investigate the possible role of T-channels in spinal nociceptive transmission in vivo, we used intrathecal (i.t.) injections and measured thermal nociceptive responses to noxious heat in adult naïve rats using methods as we described elsewhere (Messinger et al., 2009; Obradovic et al., 2014, PLoS ONE 9(4): e91467. doi:10.1371/journal.pone.0091467). For i.t. injections, rats were briefly anesthetized with 1.5-2% isoflurane and thermal paw withdrawal latencies (PWLs) were measured starting from 30 minutes following injection. […]

GABAA currents = settings: cited from earlier work
rat pups (PND7) [11] = experiment: Loss of righting reflex (LORR) in PND7 rat pups, i.p.
[12] = system: activated caspase-3 in developing brain; experiment: Activated caspase-3 staining of vulnerable brain regions in PND7 rat pups
[13] = Daily weight gain after exposure at PND7; type: in vivo, rat; settings: 3β-OH at 10 mg/kg, ketamine at 40 mg/kg, treated PND 7
Description: as §1

Q: Which ED50 [1] does the source give for `C[C@]12CC[C@H](O)C[C@H]1CC[C@@H]1[C@@H]2CC[C@]2(C)[C@@H](C#N)CC[C@@H]12` [3β-OH, (3β,5β,17β)-3-hydroxyandrostane-17-carbonitrile] here?
A: 16 ± 0.4 mg/kg

Q: What about the “increase in PWLs compared to incised paws injected with vehicle” value ([2]; 16 μg i.pl. repeated at 2 hours, day 1, 2, 3 and 5, day 1 to day 5) of the same compound?
A: 50-90%

Q: And the “thermal PWL of incised paw” value ([2]; 16 μg i.pl. single injection, day 1 after incision)?
A: about 6 seconds

Q: And the “thermal PWL of incised paw vs vehicle” value ([2]; 16 μg i.pl. single injection, day 2)?
A: not significantly different

Q: And the “effect on thermal PWLs vs vehicle in incised paws” value ([2]; 16 μg i.t. applied 2 hours after incision)?
A: little effect

Q: What about the “thermal PWL of unincised paws” value ([2]; 16 μg i.t. at 24 and 48 hours post-surgery) of the same compound?
A: 14 to 15 s

Q: What about the “thermal PWL of incised paws” value ([2]; 16 μg i.t., 48 hours post-surgery, 180 minutes post injection, vehicle about 4) of the same compound?
A: about 9 seconds

Q: And the “thermal PWL of incised paw” value ([2]; 48 μg i.pl. single injection, day 1 post incision)?
A: about 6.5 seconds

Q: What about the “thermal PWL of incised paw” value ([2]; 48 μg i.pl. single injection, day 2 post incision) of the same compound?
A: about 7 seconds

Q: What about the “time after surgery for which hyperalgesia is reduced” value ([2]; data not shown) of the same compound?
A: at least 48 hours

Q: And the “maximal block of T-current” value ([3]; DRG neurons)?
A: 100%

Q: And the IC50 ([3]; acutely dissociated DRG cells, read-out: IC50, block of T-currents in DRG cells)?
A: 3000 nM

Q: What about the “duration of LORR” value ([4]; 75 mg/kg dose) of the same compound?
A: up to 50 min

Q: And the ED50 ([4]; Mus musculus, ip, adult female C57Bl/6 mice)?
A: 46 ± 2 mg/kg

Q: What about the therapeutic index (rat pups (PND7) [5]) of the same compound?
A: about 22

Q: And the LD50 [6]?
A: 61.9 ± 4.6 mg/kg

Q: What about the “effect on postsynaptic NMDA currents” value (NMDA currents) of the same compound?
A: devoid of any direct effects

Q: What about the cardiac arrhythmias (adult monkeys) of the same compound?
A: did not notice cardiac arrhythmias

Q: What about the IC50 [7] of the same compound?
A: 2000 nM

Q: What about the inhibition at 3 µM [8] of the same compound?
A: 38 ± 4%

Q: What about the “days required to reach learning criterion in RAM” value (rats [9]; 3β-OH at 10 mg/kg, ketamine at 40 mg/kg at PND 7, tested from PND 53) of the same compound?
A: indistinguishable from vehicle animals

Q: What about the “rats reaching criterion in the allotted time” value (rats [9]; p-p plot) of the same compound?
A: 100%

Q: What about the “rats that had reached criterion at the same point of training (p-p plot)” value (rats [9]; rat, in vivo) of the same compound?
A: roughly half

Q: What about the “sensorimotor responses after vs before injection” value (rats [10]) of the same compound?
A: did not differ significantly

Q: And the “prolongation of PWLs over pre-injection baseline” value (adult naïve rats; i.t. 0.003 to 16 μg, 60 minutes post-injection)?
A: up to 80%

Q: And the “increase of PWLs” value (adult naïve rats; i.t., higher doses, 150 minutes post-injection)?
A: 25-30%

Q: And the “effect on GABAA currents” value (GABAA currents)?
A: devoid of any direct effects

Q: What about the “calculated EC50 (duration of LORR)” value (rat pups (PND7) [11]; PND7 rat pups, i.p.) of the same compound?
A: 34.5 ± 3.7 mg/kg

Q: What about the ED50 (rat pups (PND7) [11]; Rattus norvegicus, ip, read-out: calculated ED50 for LORR) of the same compound?
A: 2.9 ± 0.28 mg/kg

Q: And the “equipotent dose comparable to ketamine 40 mg/kg” value (rat pups (PND7) [11]; i.p., based on LORR)?
A: 10 mg/kg

Q: And the “equipotent single dose comparable to ketamine 20 mg/kg” value (rat pups (PND7) [11]; i.p., based on LORR)?
A: 5 mg/kg

Q: And the “apoptotic (caspase-3) activation compared with vehicle” value ([12]; 5 mg/kg i.p. every hour, six doses, all examined regions except subiculum)?
A: did not cause significant apoptotic activation

Q: What about the “caspase-3 activation, twice higher dose compared with lower dose” value ([12]; 10 mg/kg vs 5 mg/kg i.p., 6 doses hourly) of the same compound?
A: small increase

Q: What about the “caspase-3 activation at higher dose compared with vehicle” value ([12]; 3β-OH 10 mg/kg or ketamine 40 mg/kg i.p., 6 doses hourly, 3β-OH: except subiculum) of the same compound?
A: no significant increase

Q: And the “daily weight gain among the groups” value [13]?
A: no difference
